{"source": "patent EP1617853B1", "about": "“ISOLATION OF THE HEPATOPROTECTIVE AGENT ACTEOSIDE FROM COLERBROKEA OPPOSITIFOLIA” (COUNCIL OF SCIENTIFIC AND INDUSTRIAL RESEARCH, priority 2003, dated 2004)", "test_system": "CCl4 induced hepatic injury", "assay": "Hepatoprotective potential against CCl4 induced hepatic injury (prophylactic)", "format": "in vivo, Rodents", "conditions": "for ALP % protection / Albumin % protection / Bilirubin % protection / GOT % protection / GPT % protection / GSH % protection / LP % protection / TG % protection: value within parenthesis", "text": "The compound has been bioevaluated for hepatoprotective/antihepatotoxic activity by using a comprehensive study design annexed herewith as Annexure-2. The parameters studied during the bioevaluation to establish the bioefficacy and optimum dose were preferred using the kits (Clonital, Italy and Accurex Biomedical Pvt. Ltd Thane). The list of the parameters is given in Annexure-2 appended herewith. The dose response graphs with respect to different parameters in comparison with the standard drug with silymarin and glycyrrhizin are given in Annexure-3 appended herewith.\nHepatoprotective activity (H) was calculated by the following equation : H = [1-(TC-V/VC-V)]x100 [formula]\nWhere TC, VC, and V are drug + toxin, vehicle + toxin and vehicle treated groups of animals respectively. Table-1: Hepatoprotective potential of Acteoside against CCl4 induced hepatic injury in Rodents Prophylactic).", "key": {"[1]": {"conditions": "100 mg/kg p.o. + CCl4 1 ml/kg p.o., prophylactic, mean ± SE of six animals"}, "[2]": {"conditions": "100 mg/kg p.o. + CCl4 1 ml/kg p.o., prophylactic, mean ± SE of six animals, unit = µ mole pyruvate/min/L"}, "[3]": {"conditions": "100 mg/kg p.o. + CCl4 1 ml/kg p.o., prophylactic"}, "[4]": {"conditions": "0.625 mg/kg p.o. + CCl4 1 ml/kg p.o., prophylactic, mean ± SE of six animals"}, "[5]": {"conditions": "0.625 mg/kg p.o. + CCl4 1 ml/kg p.o., prophylactic"}, "[6]": {"conditions": "1.25 mg/kg p.o. + CCl4 1 ml/kg p.o., prophylactic, mean ± SE of six animals"}, "[7]": {"conditions": "1.25 mg/kg p.o. + CCl4 1 ml/kg p.o., prophylactic"}, "[8]": {"conditions": "2.5 mg/kg p.o. + CCl4 1 ml/kg p.o., prophylactic, mean ± SE of six animals"}, "[9]": {"conditions": "2.5 mg/kg p.o. + CCl4 1 ml/kg p.o., prophylactic"}, "[10]": {"conditions": "5.0 mg/kg p.o. + CCl4 1 ml/kg p.o., prophylactic, mean ± SE of six animals"}, "[11]": {"conditions": "5.0 mg/kg p.o. + CCl4 1 ml/kg p.o., prophylactic"}, "[12]": {"conditions": "Acteoside only (Per-se), 5 mg/kg p.o., no CCl4, mean ± SE of six animals"}}, "data": [{"smiles": "CC1(C)[C@@H](O[C@H]2O[C@H](C(=O)O)[C@@H](O)[C@H](O)[C@H]2O[C@@H]2O[C@H](C(=O)O)[C@@H](O)[C@H](O)[C@H]2O)CC[C@]2(C)[C@H]3C(=O)C=C4[C@@H]5C[C@@](C)(C(=O)O)CC[C@]5(C)CC[C@@]4(C)[C@]3(C)CC[C@@H]12", "note": "[Glycyrrhizin, reference compound]", "values": [{"measurement": "Hepatic parameters GSH (glutathione)", "setting": "[1]", "value": "5.96 ±0.26", "unit": "µ mole GSH/g liver"}, {"measurement": "Hepatic parameters LP (lipid peroxidation)", "setting": "[1]", "value": "54.37 ± 4.32", "unit": "n mole MDA/g liver"}, {"measurement": "Serum parameter ALP", "setting": "[1]", "value": "55.63 ± 3.52 µ mole of p-nitrophenol formed /min/L"}, {"measurement": "Serum parameter Albumin", "setting": "[1]", "value": "3.30 ± 0.12", "unit": "g %"}, {"measurement": "Serum parameter Bilirubin", "setting": "[1]", "value": "0.55 ± 0.04", "unit": "mg %"}, {"measurement": "Serum parameter TG", "setting": "[1]", "value": "65.31 ± 3.69", "unit": "mg %"}, {"measurement": "Serum parameter GOT", "setting": "[2]", "value": "494.27 ± 36.28", "unit": "Units"}, {"measurement": "Serum parameter GPT", "setting": "[2]", "value": "746.87 ± 49.77", "unit": "Units"}, {"measurement": "ALP % protection", "setting": "[3]", "value": 46.48, "unit": "%"}, {"measurement": "Albumin % protection", "setting": "[3]", "value": 38.57, "unit": "%"}, {"measurement": "Bilirubin % protection", "setting": "[3]", "value": 42.85, "unit": "%"}, {"measurement": "GOT % protection", "setting": "[3]", "value": 56.44, "unit": "%"}, {"measurement": "GPT % protection", "setting": "[3]", "value": 53.87, "unit": "%"}, {"measurement": "GSH % protection", "setting": "[3]", "value": 53.55, "unit": "%"}, {"measurement": "LP % protection", "setting": "[3]", "value": 56.08, "unit": "%"}, {"measurement": "TG % protection", "setting": "[3]", "value": 42.07, "unit": "%"}]}, {"smiles": "C[C@@H]1O[C@@H](O[C@@H]2[C@@H](O)[C@H](OCCc3ccc(O)c(O)c3)O[C@H](CO)[C@H]2OC(=O)/C=C/c2ccc(O)c(O)c2)[C@H](O)[C@H](O)[C@H]1O", "note": "[Acteoside, β-(3',4'-dihydroxyphenyl) ethyl -O-α-L-rhamnopyranosyl (1→3)-β-D-(4-O-caffeoyl)-glucopyranoside]", "values": [{"measurement": "Hepatic parameters GSH (glutathione)", "setting": "[4]", "value": "4.66±0.28", "unit": "µ mole GSH/g liver"}, {"measurement": "Hepatic parameters LP (lipid peroxidation)", "setting": "[4]", "value": "61.08±3.39", "unit": "n mole MDA/g liver"}, {"measurement": "Serum parameter ALP", "setting": "[4]", "value": "66.80±3.53 µ mole of p-nitrophenol formed /min/L"}, {"measurement": "Serum parameter Albumin", "setting": "[4]", "value": "3.06±0.07", "unit": "g %"}, {"measurement": "Serum parameter Bilirubin", "setting": "[4]", "value": "0.70±0.03", "unit": "mg %"}, {"measurement": "Serum parameter TG", "setting": "[4]", "value": "80.15±3.53", "unit": "mg %"}, {"measurement": "ALP % protection", "setting": "[5]", "value": 21.48, "unit": "%"}, {"measurement": "Albumin % protection", "setting": "[5]", "value": 21.43, "unit": "%"}, {"measurement": "Bilirubin % protection", "setting": "[5]", "value": 12.24, "unit": "%"}, {"measurement": "GOT % protection", "setting": "[5]", "value": 36.64, "unit": "%"}, {"measurement": "GPT % protection", "setting": "[5]", "value": 39.44, "unit": "%"}, {"measurement": "GSH % protection", "setting": "[5]", "value": 27.86, "unit": "%"}, {"measurement": "LP % protection", "setting": "[5]", "value": 43.53, "unit": "%"}, {"measurement": "TG % protection", "setting": "[5]", "value": 17.63, "unit": "%"}, {"measurement": "Hepatic parameters GSH (glutathione)", "setting": "[6]", "value": "5.93±0.32", "unit": "µ mole GSH/g liver"}, {"measurement": "Hepatic parameters LP (lipid peroxidation)", "setting": "[6]", "value": "52.61±2.25", "unit": "n mole MDA/g liver"}, {"measurement": "Serum parameter ALP", "setting": "[6]", "value": "59.10±3.09 µ mole of p-nitrophenol formed /min/L"}, {"measurement": "Serum parameter Albumin", "setting": "[6]", "value": "3.25±0.14", "unit": "g %"}, {"measurement": "Serum parameter Bilirubin", "setting": "[6]", "value": "0.59±0.03", "unit": "mg %"}, {"measurement": "Serum parameter TG", "setting": "[6]", "value": "74.38±3.78", "unit": "mg %"}, {"measurement": "ALP % protection", "setting": "[7]", "value": 38.72, "unit": "%"}, {"measurement": "Albumin % protection", "setting": "[7]", "value": 35.00, "unit": "%"}, {"measurement": "Bilirubin % protection", "setting": "[7]", "value": 34.69, "unit": "%"}, {"measurement": "GOT % protection", "setting": "[7]", "value": 55.43, "unit": "%"}, {"measurement": "GPT % protection", "setting": "[7]", "value": 51.01, "unit": "%"}, {"measurement": "GSH % protection", "setting": "[7]", "value": 52.96, "unit": "%"}, {"measurement": "LP % protection", "setting": "[7]", "value": 59.38, "unit": "%"}, {"measurement": "TG % protection", "setting": "[7]", "value": 27.13, "unit": "%"}, {"measurement": "Hepatic parameters GSH (glutathione)", "setting": "[8]", "value": "6.72±0.28", "unit": "µ mole GSH/g liver"}, {"measurement": "Hepatic parameters LP (lipid peroxidation)", "setting": "[8]", "value": "45.46±2.79", "unit": "n mole MDA/g liver"}, {"measurement": "Serum parameter ALP", "setting": "[8]", "value": "51.20±1.42 µ mole of p-nitrophenol formed /min/L"}, {"measurement": "Serum parameter Albumin", "setting": "[8]", "value": "3.55±0.22", "unit": "g %"}, {"measurement": "Serum parameter Bilirubin", "setting": "[8]", "value": "0.50±0.03", "unit": "mg %"}, {"measurement": "Serum parameter TG", "setting": "[8]", "value": "59.85±1.88", "unit": "mg %"}, {"measurement": "ALP % protection", "setting": "[9]", "value": 56.40, "unit": "%"}, {"measurement": "Albumin % protection", "setting": "[9]", "value": 56.43, "unit": "%"}, {"measurement": "Bilirubin % protection", "setting": "[9]", "value": 53.06, "unit": "%"}, {"measurement": "GOT % protection", "setting": "[9]", "value": 58.92, "unit": "%"}, {"measurement": "GPT % protection", "setting": "[9]", "value": 59.79, "unit": "%"}, {"measurement": "GSH % protection", "setting": "[9]", "value": 68.57, "unit": "%"}, {"measurement": "LP % protection", "setting": "[9]", "value": 72.76, "unit": "%"}, {"measurement": "TG % protection", "setting": "[9]", "value": 51.06, "unit": "%"}, {"measurement": "Hepatic parameters GSH (glutathione)", "setting": "[10]", "value": "7.02±0.46", "unit": "µ mole GSH/g liver"}, {"measurement": "Hepatic parameters LP (lipid peroxidation)", "setting": "[10]", "value": "44.22±1.66", "unit": "n mole MDA/g liver"}, {"measurement": "Serum parameter ALP", "setting": "[10]", "value": "46.37±1.89 µ mole of p-nitrophenol formed /min/L"}, {"measurement": "Serum parameter Albumin", "setting": "[10]", "value": "3.91±0.12", "unit": "g %"}, {"measurement": "Serum parameter Bilirubin", "setting": "[10]", "value": "0.42±0.02", "unit": "mg %"}, {"measurement": "Serum parameter TG", "setting": "[10]", "value": "49.31±1.47", "unit": "mg %"}, {"measurement": "ALP % protection", "setting": "[11]", "value": 67.21, "unit": "%"}, {"measurement": "Albumin % protection", "setting": "[11]", "value": 32.14, "unit": "%"}, {"measurement": "Bilirubin % protection", "setting": "[11]", "value": 69.38, "unit": "%"}, {"measurement": "GOT % protection", "setting": "[11]", "value": 70.49, "unit": "%"}, {"measurement": "GPT % protection", "setting": "[11]", "value": 66.08, "unit": "%"}, {"measurement": "GSH % protection", "setting": "[11]", "value": 74.50, "unit": "%"}, {"measurement": "LP % protection", "setting": "[11]", "value": 75.07, "unit": "%"}, {"measurement": "TG % protection", "setting": "[11]", "value": 68.42, "unit": "%"}, {"measurement": "Hepatic parameters GSH (glutathione)", "setting": "[12]", "value": "8.33±0.33", "unit": "µ mole GSH/g liver"}, {"measurement": "Hepatic parameters LP (lipid peroxidation)", "setting": "[12]", "value": "30.52±1.38", "unit": "n mole MDA/g liver"}, {"measurement": "Serum parameter ALP", "setting": "[12]", "value": "31.87±2.15 µ mole of p-nitrophenol formed /min/L"}, {"measurement": "Serum parameter Albumin", "setting": "[12]", "value": "4.66±0.18", "unit": "g %"}, {"measurement": "Serum parameter Bilirubin", "setting": "[12]", "value": "0.27±0.02", "unit": "mg %"}, {"measurement": "Serum parameter TG", "setting": "[12]", "value": "31.10±2.39", "unit": "mg %"}, {"measurement": "Serum parameter GOT", "setting": "Acteoside only (Per-se), 5 mg/kg p.o., no CCl4, mean ± SE of six animals, unit = µ mole pyruvate/min/L", "value": "94.71±5.29", "unit": "Units"}, {"measurement": "overall percent protection", "setting": "with reference to all the parameters studied, CCl4, dose of 1.25 mg upto 5 mg/kg", "value": "40-80%"}]}]}
